{
  "source": "patent US20050196469A1",
  "about": "“Micronutrient supplement combination for acne treatment and prevention” (priority 2004, published 2005)",
  "key": {"acneiform eruptions": {"system": "acneiform eruptions", "experiment": "Case reports: effect on acneiform eruptions in patients", "assay_type": "in vivo, human", "description": "The effect of the micronutrient/mineral supplement of the present invention on acneiform eruptions is illustrated below.\n1. patient six was a person with a long history of cystic acne vulgaris. They had no history of polycystic ovarian syndrome, ovarian cysts, oligomenorrhea or amenorrhea. Topical benzoyl peroxide and antibiotics provided no relief of their acne. They refused both oral contraceptive use or a trial of the diuretic spironolactone for possible acne benefits. They were contemplating a trial of accutane, when they decided to see an endocrinologist for a possible hormone etiology of their skin condition. Complete blood count, chemistries, thyroid function tests, AM cortisol were normal. Vitamin B12 and folate concentrations were normal; the total testosterone was 40 ng and not elevated; the androgenic steroids—DHEAS and androstenedione were normal. The 25 hydroxyvitamin D concentration was <5 ng/ml and intact parathyroid hormone (PTH) was elevated at 69 pg/ml (normal up to 65 pg). […] At four months, the 25 vitamin D concentration was 31 ng/ml and the total vitamin D3 was reduced to 2000 IU daily.\n2. patient two was a person with chronic fatigue, inability to lose weight and severe chronic acne vulgaris unresponsive to topical treatments. They had been on Accutane multilple times but their skin improvement was transient with continual periodic acne eruptions. […] They were prescribed vitamin D3 at 4000 IU daily with calcium carbonate (elemental calcium) at 1500 mg; folate 2000 IU; vitamin B6 at 50 mcg and vitamin B12 at 500 mcg daily (B12 was prescribed at 500 mcg for 2 weeks only because of B12 deficiency) and then lowered to 50 mcg daily). A repeat 25 vitamin D level at 3 months was 30 ng and the total daily vitamin D was then lowered to 2000 IU daily; repeat B12 level was normal.\n3. patient one was a person with a known history of oligomenorrhea/amenorrhea. Their menstrual cycles had been irregular with fewer than 8 cycles per year. Oral contraceptives prescribed 5 years ago normalized their menstrual cycles. […]"}, "[1]": {"settings": "oral ingestion; cited from earlier work"}},
  "data": [
    {"smiles": "CC1=C(/C=C/C(C)=C/C=C/C(C)=C\\C(=O)O)C(C)(C)CCC1", "note": "[Accutane]", "values": [
      {"measurement": "effect on acne", "setting": "acneiform eruptions; patient one, earlier and current treatment", "value": "without success"},
      {"measurement": "skin improvement", "setting": "acneiform eruptions; patient two, earlier treatment, multiple courses", "value": "transient"}
    ]},
    {"smiles": "O=C(OOC(=O)c1ccccc1)c1ccccc1", "note": "[benzoyl peroxide]", "values": [
      {"measurement": "relief of acne", "setting": "acneiform eruptions; patient six, earlier topical treatment", "value": "no relief"}
    ]},
    {"smiles": "C=C1CC[C@H](O)C/C1=C/C=C1\\CCC[C@]2(C)[C@@H]([C@H](C)CCCC(C)C)CC[C@@H]12", "note": "[cholecalciferol]", "values": [
      {"measurement": "daily dose at which toxicity occurs", "setting": "[1]", "value": "40,000 IU"}
    ]}
  ]
}
